Earlier results on 1 compound are cited in patent publication US8030335B2, “Use of liver X receptor agonists” (Laboratoires Fournier S.A., priority 2005, dated 2011).

In data set [1] the test system is db/db mice. The note with it: cited from earlier work.
The subject of data set [2] is pancreatic islets or insulin-secreting MIN6 cells. The note with it: culture with compound, cited from earlier work.

Each structure is given as a SMILES string.

Take `O=S(=O)(c1ccccc1)N(CC(F)(F)F)c1ccc(C(O)(C(F)(F)F)C(F)(F)F)cc1` [T0901317]: the plasma glucose level result in data set [1] (db/db mice (not in normal mice)) is recorded as “lower plasma glucose level”. Also, the “expression of PEPCK” value in data set [1] (limits hepatic glucose output) is reported as “inhibits”. Further, in data set [2], the islet insulin content entry is “increase”. The glucose-dependent insulin secretion entry in data set [2] (effect only after >72 h of islet culture) is “increase”.
